Converted amounts (≈) assume the structure as drawn.
What was measured:
[1] = Clearance in Sprague-Dawley rat at 2 mg/kg, iv administered as cassette dosing; assay type: ADME, organism-based; set-up: dose 2 mg/kg, route intravenous; settings: in vivo
[2] = Mean residence time in Sprague-Dawley rat at 2 mg/kg, iv administered as cassette dosing; assay type: ADME, organism-based; set-up: dose 2 mg/kg, route intravenous; settings: in vivo
[3] = AUC (0 to t) in Sprague-Dawley rat at 2 mg/kg, iv administered as cassette dosing; assay type: ADME, organism-based; set-up: dose 2 mg/kg, route intravenous; settings: plasma
[4] = Volume of distribution at steady state in Sprague-Dawley rat at 2 mg/kg, iv administered as cassette dosing; assay type: ADME, organism-based; set-up: dose 2 mg/kg, route intravenous; settings: in vivo, read-out: Vdss
[5] = tested on: Staphylococcus epidermidis; assay: Antibacterial activity against methicillin-sensitive Staphylococcus epidermidis after 16 hrs by agar dilution method; assay type: functional
[6] = Elimination half life in Sprague-Dawley rat at 2 mg/kg, iv administered as cassette dosing; assay type: ADME, organism-based; set-up: dose 2 mg/kg, route intravenous; settings: in vivo, read-out: beta t1/2 (converted)
Staphylococcus aureus [7] = assay: Antibacterial activity against methicillin-resistant Staphylococcus aureus after 16 hrs by agar dilution method; assay type: functional
Staphylococcus aureus [8] = assay: Antibacterial activity against Staphylococcus aureus […] after 16 hrs by agar dilution method; assay type: functional
[9] = tested on: Staphylococcus epidermidis; assay: Antibacterial activity against methicillin-resistant Staphylococcus epidermidis after 16 hrs by agar dilution method; assay type: functional
Streptococcus pneumoniae = assay: Antibacterial activity against penicillin-resistant Streptococcus pneumoniae after 16 hrs by agar dilution method; assay type: functional
Staphylococcus aureus [10] = assay: Antibacterial activity against methicillin-sensitive Staphylococcus aureus after 16 hrs by agar dilution method; assay type: functional
Staphylococcus aureus [11] = assay: Antibacterial activity against of methicillin-sensitive Staphylococcus aureus ATCC 19636 infected in iv dosed mouse assessed as host survival administered 1 hr after infection measured after 48 hrs; assay type: functional; settings: ATCC 19636, iv
Cytochrome P450 2C9 = Cytochrome P450 2C9 (Homo sapiens, UniProt P11712); assay: Inhibition of CYP2C9 in human liver microsomes using tolbutamide as substrate after 15 mins by LC/MS/MS analysis
Chain of Cytochrome P450 2C9 (P11712 whole entry): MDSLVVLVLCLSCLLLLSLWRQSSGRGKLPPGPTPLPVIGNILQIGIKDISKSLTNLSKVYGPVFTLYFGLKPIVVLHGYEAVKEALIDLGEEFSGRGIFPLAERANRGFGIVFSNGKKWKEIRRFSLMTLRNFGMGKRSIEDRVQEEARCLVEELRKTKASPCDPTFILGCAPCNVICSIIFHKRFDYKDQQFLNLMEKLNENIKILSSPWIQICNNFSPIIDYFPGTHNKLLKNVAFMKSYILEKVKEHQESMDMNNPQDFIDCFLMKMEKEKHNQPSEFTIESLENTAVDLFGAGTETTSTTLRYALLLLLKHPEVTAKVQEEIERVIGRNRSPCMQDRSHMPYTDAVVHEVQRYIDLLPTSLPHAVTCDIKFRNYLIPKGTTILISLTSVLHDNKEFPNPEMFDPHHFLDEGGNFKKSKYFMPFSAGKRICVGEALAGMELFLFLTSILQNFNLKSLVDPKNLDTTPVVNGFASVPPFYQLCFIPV

Cytochrome P450 1A2 = target: T1, Cytochrome P450 1A2 (Homo sapiens, UniProt P05177); assay: Inhibition of CYP1A2 in human liver microsomes using phenacetin as substrate after 15 mins by LC/MS/MS analysis
T1 sequence (P05177 whole entry): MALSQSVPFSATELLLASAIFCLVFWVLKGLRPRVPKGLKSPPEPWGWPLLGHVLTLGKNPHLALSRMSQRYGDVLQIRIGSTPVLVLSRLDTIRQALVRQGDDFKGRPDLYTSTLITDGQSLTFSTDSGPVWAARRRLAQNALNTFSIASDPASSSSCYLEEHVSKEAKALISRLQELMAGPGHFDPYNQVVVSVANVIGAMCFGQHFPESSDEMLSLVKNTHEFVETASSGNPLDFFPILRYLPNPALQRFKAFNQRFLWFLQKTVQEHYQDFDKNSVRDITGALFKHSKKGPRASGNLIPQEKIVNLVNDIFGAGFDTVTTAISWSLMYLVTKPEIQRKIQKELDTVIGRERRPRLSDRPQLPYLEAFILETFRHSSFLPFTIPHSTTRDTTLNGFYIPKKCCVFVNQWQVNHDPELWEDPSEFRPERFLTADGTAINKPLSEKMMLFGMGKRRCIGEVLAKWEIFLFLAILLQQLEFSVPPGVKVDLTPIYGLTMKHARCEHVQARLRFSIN

Staphylococcus aureus [12] = assay: Antibacterial activity against of methicillin-sensitive Staphylococcus aureus ATCC 19636 infected in iv dosed mouse administered 1 hr after infection measured after 48 hrs; assay type: functional
Cytochrome P450 3A4 [13] = target: T2, Cytochrome P450 3A4 (Homo sapiens, UniProt P08684); assay: Inhibition of CYP3A4 in human liver microsomes using midazolam as substrate after 15 mins by LC/MS/MS analysis
T2 sequence (P08684 whole entry): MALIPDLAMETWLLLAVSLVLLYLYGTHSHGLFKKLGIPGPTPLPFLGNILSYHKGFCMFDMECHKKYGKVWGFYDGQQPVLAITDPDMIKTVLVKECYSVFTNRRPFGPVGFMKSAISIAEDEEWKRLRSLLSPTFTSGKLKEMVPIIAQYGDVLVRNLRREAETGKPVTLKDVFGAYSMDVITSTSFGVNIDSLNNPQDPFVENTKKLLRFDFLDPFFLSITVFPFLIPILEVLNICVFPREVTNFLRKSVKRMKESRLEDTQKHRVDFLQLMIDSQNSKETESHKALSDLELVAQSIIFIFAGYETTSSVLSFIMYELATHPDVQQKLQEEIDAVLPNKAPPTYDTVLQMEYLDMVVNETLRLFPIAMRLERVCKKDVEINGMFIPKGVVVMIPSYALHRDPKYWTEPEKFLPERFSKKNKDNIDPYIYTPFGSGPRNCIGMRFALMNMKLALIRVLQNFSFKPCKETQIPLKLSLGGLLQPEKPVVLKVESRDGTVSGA

Cytochrome P450 3A4 [14] = target: T2, Cytochrome P450 3A4; assay: Inhibition of CYP3A4 in human liver microsomes using testosterone as substrate after 15 mins by LC/MS/MS analysis
Cytochrome P450 2D6 = Cytochrome P450 2D6 (Homo sapiens, UniProt P10635); assay: Inhibition of CYP2D6 in human liver microsomes using dextromethorphan as substrate after 15 mins by LC/MS/MS analysis
Chain of Cytochrome P450 2D6 (P10635 whole entry): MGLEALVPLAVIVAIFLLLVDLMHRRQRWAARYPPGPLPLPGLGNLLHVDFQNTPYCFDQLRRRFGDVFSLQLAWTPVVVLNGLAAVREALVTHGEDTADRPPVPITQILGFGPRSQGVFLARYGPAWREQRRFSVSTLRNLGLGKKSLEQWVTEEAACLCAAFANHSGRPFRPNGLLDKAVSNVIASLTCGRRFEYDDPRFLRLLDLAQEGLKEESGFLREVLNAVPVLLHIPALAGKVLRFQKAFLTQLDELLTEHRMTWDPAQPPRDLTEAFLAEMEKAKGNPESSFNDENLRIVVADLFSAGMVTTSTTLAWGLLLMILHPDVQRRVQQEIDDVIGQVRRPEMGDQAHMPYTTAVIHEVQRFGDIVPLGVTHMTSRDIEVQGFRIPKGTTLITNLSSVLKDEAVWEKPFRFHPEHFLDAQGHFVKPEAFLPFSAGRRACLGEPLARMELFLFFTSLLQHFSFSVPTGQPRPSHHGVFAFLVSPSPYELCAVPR

Cytochrome P450 2C19 = Cytochrome P450 2C19 (Homo sapiens, UniProt P33261); assay: Inhibition of CYP2C19 in human liver microsomes using mephenytoin as substrate after 15 mins by LC/MS/MS analysis
Chain of Cytochrome P450 2C19 (P33261 whole entry): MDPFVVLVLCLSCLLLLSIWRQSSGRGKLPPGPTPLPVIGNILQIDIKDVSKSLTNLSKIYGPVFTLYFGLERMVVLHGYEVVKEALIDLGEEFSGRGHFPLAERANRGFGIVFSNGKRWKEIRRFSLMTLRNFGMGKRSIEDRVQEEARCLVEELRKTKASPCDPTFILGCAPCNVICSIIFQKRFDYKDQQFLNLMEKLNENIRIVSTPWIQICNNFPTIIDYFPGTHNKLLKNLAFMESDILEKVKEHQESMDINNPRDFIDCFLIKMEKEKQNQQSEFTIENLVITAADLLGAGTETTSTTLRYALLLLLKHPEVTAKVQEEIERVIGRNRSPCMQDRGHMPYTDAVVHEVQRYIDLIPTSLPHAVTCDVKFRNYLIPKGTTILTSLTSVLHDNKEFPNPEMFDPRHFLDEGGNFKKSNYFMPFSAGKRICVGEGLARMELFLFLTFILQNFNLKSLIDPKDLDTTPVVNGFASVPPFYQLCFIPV

[15] = Aqueous solubility of the compound in water at pH 7.4; settings: buffer

Compound	clearance [1] [mL/min/kg]	MRT [2] [min]	AUC(0-t) [3] [ng·h/mL]	Vd [4] [L/kg]	MIC [5] [µg/mL]	half-life [6] [min]	MIC (Staphylococcus aureus [7]) [µg/mL]	MIC (Staphylococcus aureus [8]) [µg/mL]	MIC [9] [µg/mL]	MIC (Streptococcus pneumoniae) [µg/mL]	MIC (Staphylococcus aureus [10]) [µg/mL]	ED50 (Staphylococcus aureus [11]) [mg/kg]	IC50 (Cytochrome P450 2C9) [µM]	IC50 (Cytochrome P450 1A2) [µM]	MIC (Staphylococcus aureus [12]) [µg/mL]	IC50 (Cytochrome P450 3A4 [13]) [µM]	IC50 (Cytochrome P450 3A4 [14]) [µM]	IC50 (Cytochrome P450 2D6) [µM]	IC50 (Cytochrome P450 2C19) [µM]	solubility [15]
C=C[C@]1(C)C[C@@H](OC(=O)CSc2cncc(NC(=O)CN)c2)[C@]2(C)[C@H](C)CC[C@]3(CCC(=O)[C@H]32)[C@@H](C)[C@@H]1O	828	16.8	41	13.8	0.125 (≈ 0.23 µM)	20.4	0.063 (≈ 0.116 µM)	0.063 (≈ 0.116 µM)	0.125 (≈ 0.23 µM)	0.063 (≈ 0.116 µM)	0.063 (≈ 0.116 µM)	–	–	–	–	–	–	–	–	–
C=C[C@]1(C)C[C@@H](OC(=O)CS[C@@H]2CC[C@@H](N)C[C@H]2O)[C@]2(C)[C@H](C)CC[C@]3(CCC(=O)[C@H]32)[C@@H](C)[C@@H]1O [LEFAMULIN]	122	228	275	27.6	–	264	–	–	–	–	–	3.08	> 25	> 25	0.031 (≈ 0.0611 µM)	4.65	4.43	> 25	> 25	–
C=C[C@]1(C)C[C@@H](OC(=O)CSc2ccccn2)[C@]2(C)[C@H](C)CC[C@]3(CCC(=O)[C@H]32)[C@@H](C)[C@@H]1O	–	–	–	–	0.031 (≈ 0.0657 µM)	–	0.031 (≈ 0.0657 µM)	0.063 (≈ 0.134 µM)	0.031 (≈ 0.0657 µM)	0.031 (≈ 0.0657 µM)	0.031 (≈ 0.0657 µM)	–	> 10	> 10	–	1.25	1.36	> 10	> 10	–
C=C[C@]1(C)C[C@@H](OC(=O)CSc2cncc(NC(=O)CN3CCCC(O)C3)c2)[C@]2(C)[C@H](C)CC[C@]3(CCC(=O)[C@H]32)[C@@H](C)[C@@H]1O (some centres not stated)	65	28.8	522	1.9	0.063 (≈ 0.1 µM)	40.2	0.063 (≈ 0.1 µM)	0.063 (≈ 0.1 µM)	0.063 (≈ 0.1 µM)	0.063 (≈ 0.1 µM)	0.063 (≈ 0.1 µM)	–	> 25	> 25	–	1.08	1.24	> 25	12.4	–
C=C[C@]1(C)C[C@@H](OC(=O)CSc2cccc(CO)c2)[C@]2(C)[C@H](C)CC[C@]3(CCC(=O)[C@H]32)[C@@H](C)[C@@H]1O	–	–	–	–	0.063 (≈ 0.126 µM)	–	0.063 (≈ 0.126 µM)	0.063 (≈ 0.126 µM)	0.063 (≈ 0.126 µM)	0.063 (≈ 0.126 µM)	0.063 (≈ 0.126 µM)	–	11.1	> 25	–	1.95	1.9	> 25	15.4	–
C=C[C@]1(C)C[C@@H](OC(=O)CSc2nccs2)[C@]2(C)[C@H](C)CC[C@]3(CCC(=O)[C@H]32)[C@@H](C)[C@@H]1O	–	–	–	–	0.25 (≈ 0.523 µM)	–	0.5 (≈ 1.05 µM)	0.5 (≈ 1.05 µM)	0.25 (≈ 0.523 µM)	0.5 (≈ 1.05 µM)	0.5 (≈ 1.05 µM)	–	–	–	–	–	–	–	–	–
C=C[C@]1(C)C[C@@H](OC(=O)CSc2ccncc2CO)[C@]2(C)[C@H](C)CC[C@]3(CCC(=O)[C@H]32)[C@@H](C)[C@@H]1O	–	–	–	–	0.063 (≈ 0.126 µM)	–	0.063 (≈ 0.126 µM)	0.063 (≈ 0.126 µM)	0.063 (≈ 0.126 µM)	0.125 (≈ 0.249 µM)	0.063 (≈ 0.126 µM)	–	–	–	–	–	–	–	–	–
C=C[C@]1(C)C[C@@H](OC(=O)CSc2cncc(/C=N/OCC)c2)[C@]2(C)[C@H](C)CC[C@]3(CCC(=O)[C@H]32)[C@@H](C)[C@@H]1O	–	–	–	–	1 (≈ 1.84 µM)	–	1 (≈ 1.84 µM)	1 (≈ 1.84 µM)	1 (≈ 1.84 µM)	1 (≈ 1.84 µM)	1 (≈ 1.84 µM)	–	–	–	–	–	–	–	–	–
C=C[C@]1(C)C[C@@H](OC(=O)CSc2cncc(N)c2)[C@]2(C)[C@H](C)CC[C@]3(CCC(=O)[C@H]32)[C@@H](C)[C@@H]1O	–	–	–	–	0.031 (≈ 0.0637 µM)	–	0.031 (≈ 0.0637 µM)	0.031 (≈ 0.0637 µM)	0.031 (≈ 0.0637 µM)	0.063 (≈ 0.129 µM)	0.063 (≈ 0.129 µM)	–	> 25	> 25	–	0.135	0.0444	17.1	15.5	Insoluble
C=C[C@]1(C)C[C@@H](OC(=O)CSc2cncc(NC(=O)[C@@H](N)CC(C)C)c2)[C@]2(C)[C@H](C)CC[C@]3(CCC(=O)[C@H]32)[C@@H](C)[C@@H]1O	488	21	69	10.3	0.063 (≈ 0.105 µM)	37.8	0.063 (≈ 0.105 µM)	0.031 (≈ 0.0517 µM)	0.063 (≈ 0.105 µM)	0.063 (≈ 0.105 µM)	0.063 (≈ 0.105 µM)	–	–	–	–	–	–	–	–	–

From ChEMBL document CHEMBL3286253, “Design, synthesis, and structure-activity relationship studies of novel thioether pleuromutilin derivatives as potent antibacterial agents” (J Med Chem, 2014)
